Usually Ki stands for a measure of affinity in units of concentration, obtained from inhibition or displacement. A high value points to weaker binding. In general, EC50 refers to the concentration at which the effect is half-maximal. Lower therefore signals higher potency in that assay.

Data on one molecule can be found in patent US10369131B2, “Ultrapure tetrahydrocannabinol-11-oic acids” (Corbus Pharmaceuticals, Inc., priority 2013, dated 2019).

Assay [1] has as its system C57Bl mice, bleomycin induced skin fibrosis. Description: Bleomycin induced skin fibrosis mouse model of scleroderma. In kind it is in vivo. The settings on record: for inhibition of skin fibrosis: oral gavage 2.5, 5.0 and 10 mg/kg daily, bleomycin s.c. 14 days, sacrifice day 21. How it is done: Groups of 8 mice (6-12 week-old C57Bl) received daily s.c. injections of bleomycin (20 ug/mouse) or vehicle for 14 days, followed by one weeks of recovery. In parallel, starting day 1, ultrapure AJA suspended in 2% methylcellulose (MC) or vehicle was administered by oral gavage at 0, 2.5, 5.0 and 10 mg/kg. On day 21, mice were sacrificed. Their skin was harvested and processed for routine histology (H&E, trichrome and picrosirius red stains), immunohistology (paraffin-embedded or frozen samples), in situ hybridization, collagen (SIRCOL) assays, and RNA isolation for real-time qPCR or microarray hybridization. Skin sections were carefully characterized and quantified for dermal inflammation, dermal thickening, collagen accumulation (Trichrome), and collagen cross-linking (Sirius red) in lesional skin.

Assay [2] concerns the target T1, CB1 receptor (Homo sapiens, UniProt P21554). The assay can be described thus: CB receptor radioligand binding assay, human CB1. Also noted: expressed in transfected cells; host or cells: HEK-293T. How it is done: Membrane preparation—HEK-293T cells were cultured according to ATCC (Manassas, Va.) guidelines and transfected with human CB1 cDNA (Genbank X54937) or CB2 cDNA (Genbank X74328), operably linked to the SV40 promoter, using Polyfect (Qiagen, Valencia, Calif.) or Fugene (Roche, Nutley, N.J.) according to manufacturer's instructions. 48 h after transfection, cells were harvested in ice cold membrane buffer (20 mM HEPES, 6 mM MgCl2, 1 mM EDTA, pH 7.2) using a cell scraper. Cells were transferred to a nitrogen cavitation chamber and a pressure of […] was applied for 30 min. The pressure was released and the cell debris was collected and centrifuged at 1000 g at 4° C. for 10 min. The supernatant was collected and the spin was repeated until the supernatant was free of precipitate. […] The membrane concentration was determined using a BioRad (Hercules, Calif.) protein assay dye reagent according to manufacturer's instructions. […]
Membranes were incubated for 2 hr at room temperature, then filtered onto a presoaked (with 0.1% polyethylenimine for 1 to 2 hr) 96 well GF/B filterplate (Packard Bioscience, Shelton, Conn.) and washed with […] ice cold wash buffer (25 mM HEPES, 1 mM CaCl2, 5 mM MgCl2, 0.25M NaCl) using a Filtermate 196 Harvester (Packard Instruments, Downers Grove, Ill.). […] Plates were counted on a Topcount NXT (Packard, Shelton, Conn.). […]

The target of assay [3] is T1, CB1 receptor. Description: biochemical.
Description: (§1) When the CB1 or CB2 receptor is activated by an agonist, the affinity of the G protein alpha subunit increases with respect to GTP vs. GDP. As a consequence, GDP is displaced from the G protein and GTP or GTPγS binds. If a radioactive label, such as [^35S], is attached to the GTPγS molecule, then the formation of the G protein/[^35S]GTPγS complex can be directly measured using liquid scintillation spectrophotometry.
(§2) The CB1 and CB2 receptor assays involve membrane preparations purchased from Perkin Elmer (Waltham, Mass.) isolated from a HEK-293 expression system. G-protein coupled signal transduction (GTP-γ-[35S]) assays of test compounds were conducted in an incubation mixture consisting of a test compound (250 nM-1 mM), GDP (20 μM), GTP-γ-[35S] (100 pM), and the hCB1 and hCB2 membrane preparations (0.4 pM) in a total volume of 0.4 mL of assay buffer (50 mM TRIS-HCl, pH 7.4, 1 mM EDTA, 100 mM NaCl, 5 mM MgCl2, 0.5% (w/v) BSA). Nonspecific binding was determined in the presence of 100 μM unlabeled GTP-γ-S, and basal binding was determined in the absence of drug. Duplicate samples were incubated for 1 h at 30° C., and the bound complex was filtered from the reaction mixture as described previously and counted in a liquid scintillation counter. Specific binding was calculated by subtracting nonspecific binding from total binding and dividing by the total basal binding minus nonspecific binding. Data were plotted and analyzed with GraphPad Prism (GraphPad Software, Inc., San Diego, Calif.).
The next assay concerns HL-60 cells. Description: PGJ synthesis in HL-60 cells (ELISA). The assay is classed as cell-based. The settings on record: TNFα 10 nM, with CB2 or CB1 antagonist, N=4. How it is done:
The CB2 antagonist SR144528 reduced ultrapure AJA-induced PGJ synthesis in HL60 immune system cells at low concentrations (squares). […] DMSO control (open circles). Treatments of cells was carried out in 48 well plates with 20,000 cells/500 μl RPMI/FCS media/well. Cells were incubated for 20 hrs at 37° C. and 5% CO2. Media was changed to 500 μl of serum free RPMI and TNFα (10 nM) added. […] N=4.
A general note: An ELISA detects its analyte on a solid surface through an enzyme-linked reagent.

The next assay concerns the target hCB2 receptor (Homo sapiens, UniProt P34972).

T1 sequence (P21554 whole entry): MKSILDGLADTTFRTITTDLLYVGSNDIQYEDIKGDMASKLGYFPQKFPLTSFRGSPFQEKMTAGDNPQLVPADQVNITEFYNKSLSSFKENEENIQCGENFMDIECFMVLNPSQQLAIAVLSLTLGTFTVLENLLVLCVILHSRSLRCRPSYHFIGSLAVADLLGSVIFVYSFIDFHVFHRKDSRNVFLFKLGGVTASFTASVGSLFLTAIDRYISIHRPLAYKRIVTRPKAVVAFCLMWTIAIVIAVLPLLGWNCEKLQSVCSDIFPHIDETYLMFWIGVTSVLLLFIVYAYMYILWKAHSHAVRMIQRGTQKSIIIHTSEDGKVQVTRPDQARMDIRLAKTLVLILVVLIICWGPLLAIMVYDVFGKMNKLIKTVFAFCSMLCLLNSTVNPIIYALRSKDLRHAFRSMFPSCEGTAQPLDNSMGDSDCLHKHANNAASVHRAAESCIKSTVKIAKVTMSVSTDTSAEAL
Chain of hCB2 receptor (P34972 whole entry): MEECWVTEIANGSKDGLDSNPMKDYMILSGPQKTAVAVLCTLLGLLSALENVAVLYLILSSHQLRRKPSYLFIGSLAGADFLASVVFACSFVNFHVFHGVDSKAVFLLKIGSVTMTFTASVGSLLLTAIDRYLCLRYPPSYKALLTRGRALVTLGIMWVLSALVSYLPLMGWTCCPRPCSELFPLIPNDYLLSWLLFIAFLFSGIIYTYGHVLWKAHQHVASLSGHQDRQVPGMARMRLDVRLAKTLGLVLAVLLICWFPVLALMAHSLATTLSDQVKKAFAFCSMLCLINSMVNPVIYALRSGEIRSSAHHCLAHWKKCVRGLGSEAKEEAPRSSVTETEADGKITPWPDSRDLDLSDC
Description for hCB2 receptor: as §1, §2

Consider `CCCCCCC(C)(C)c1cc(O)c2c(c1)OC(C)(C)[C@@H]1CC=C(C(=O)O)C[C@@H]21` [JBT-101, (6aR,10aR)-3-(1′,1′-dimethylheptyl)-Δ8-tetrahydro-cannabinol-9-carboxylic acid], for which the “inhibition of skin thickening” value in assay [1] (all oral doses, including 1 mg/kg (data not shown)) was “equally effective”. Moreover, the entries for the “inhibition of skin fibrosis” value in assay [1] and in assay [1] (listed as ultrapure AJA) were “effective at inhibiting skin fibrosis” and “effective at all doses tested”, respectively. This molecule displayed a Ki at CB1 receptor [2] of 0.628 ± 0.006 µM. Besides, the concentration for a half-maximal effect (EC50) at CB1 receptor [3] (hCB1 EC50 Mean (±SEM), GTP-γ-35S turnover, mean of 4 repetitions) worked out at 9.21 ± 2.04 µM; at CB1 receptor [3] (hCB1 EC50 Rep 1, GTP-γ-35S turnover, replicate 1), 13.7 µM; at CB1 receptor [3] (hCB1 EC50 Rep 2, GTP-γ-35S turnover, replicate 2), 5.83 µM; at CB1 receptor [3] (hCB1 EC50 Rep 3, GTP-γ-35S turnover, replicate 3), 11.6 µM; at CB1 receptor [3] (hCB1 EC50 Rep 4, GTP-γ-35S turnover, replicate 4), 5.66 µM. In addition, the “stimulation of PGJ in HL-60 cells” value with HL-60 cells was “CB2 specificity”. For the same molecule, the “potency in the GTP-gamma-S assay better in the CB2 assay than in the CB1 assay” value at hCB2 receptor (FIG. 13) is roughly 10 ×. The “difference in potency for activation of CB2 versus CB1 receptors” value at hCB2 receptor (GTP-γ-35S EC50 CB1 vs CB2) is 9 fold.
